Experimental data from patent US10640506B2, “Cyclobutyl substituted pyrrolopyridine and pyrrolopyrimidines derivatives as JAK inhibitors” (Incyte Corporation, priority 2010, dated 2020).

Columns and labels:
[1] = biological target: human JAK1 (a.a. 837-1142) (Homo sapiens, UniProt P23458); experiment: In vitro JAK kinase assay (HTRF, phosphorylation of biotinylated peptide), JAK1; type: biochemical; details: Table F; 1 mM ATP
Summary of the method: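 His-tagged human JAK1 catalytic domain (a.a. 837-1142), baculovirus/insect-cell expressed, phosphorylates a biotinylated peptide for 1 h at room temperature. Reaction stopped with EDTA; product detected by HTRF (SA-APC, Eu-Py20, 40 min binding). IC50 reported as ranges.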

[2] = biological target: T1, JAK2 (a.a. 828-1132) (Homo sapiens, UniProt O60674); experiment: In vitro JAK kinase assay (HTRF, phosphorylation of biotinylated peptide), JAK2; type: biochemical; details: Table F; 1 mM ATP
T1 construct: JAK2 (a.a. 828-1132); His tag (N)
T1 sequence (O60674 828-1132): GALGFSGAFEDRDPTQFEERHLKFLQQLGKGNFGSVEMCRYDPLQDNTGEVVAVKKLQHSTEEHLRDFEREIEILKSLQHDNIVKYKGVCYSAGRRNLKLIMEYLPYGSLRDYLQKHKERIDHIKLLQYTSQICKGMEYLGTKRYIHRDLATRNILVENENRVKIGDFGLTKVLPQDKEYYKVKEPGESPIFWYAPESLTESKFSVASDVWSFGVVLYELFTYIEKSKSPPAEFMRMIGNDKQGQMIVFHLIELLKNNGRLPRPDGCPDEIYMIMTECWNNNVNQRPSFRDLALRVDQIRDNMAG
Summary of the method: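 His-tagged catalytic domains of human JAK1 (a.a. 837-1142) and JAK2 (a.a. 828-1132), baculovirus-expressed, phosphorylate a biotinylated peptide for 1 hour at room temperature. Stopped with EDTA; detected by HTRF using SA-APC and Eu-Py20 antibody after 40 min binding; values binned as ranges.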

Sequence of human JAK1 (a.a. 837-1142) (P23458 849-1154): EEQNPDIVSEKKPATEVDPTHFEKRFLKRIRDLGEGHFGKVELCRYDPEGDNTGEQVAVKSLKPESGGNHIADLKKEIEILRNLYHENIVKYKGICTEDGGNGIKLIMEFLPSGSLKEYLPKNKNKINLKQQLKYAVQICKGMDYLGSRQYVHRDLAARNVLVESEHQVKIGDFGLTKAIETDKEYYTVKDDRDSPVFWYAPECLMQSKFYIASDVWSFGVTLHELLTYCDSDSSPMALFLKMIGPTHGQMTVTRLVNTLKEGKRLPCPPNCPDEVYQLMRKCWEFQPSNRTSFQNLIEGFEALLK

IC50 [1] [nM] | IC50 [2] [nM] | SMILES
< 10 | 25 to 100 | N#CC[C@]1(n2cc(-c3ncnc4[nH]ccc34)cn2)C[C@H](N2CCC(Oc3cc(CN)cc(C(F)(F)F)n3)CC2)C1 [Example 129, {trans-3-(4-{[4-(aminomethyl)-6-(trifluoromethyl)pyridin-2-yl]oxy}piperidin-1-yl)-1-[4-(7H-pyrrolo[2,3-d]pyrimidin-4-yl)-1H-pyrazol-1-yl]cyclobutyl}acetonitrile]
< 10 | > 100 | CN(C)Cc1cc(OC2CCN([C@H]3C[C@](CC#N)(n4cc(-c5ncnc6[nH]ccc56)cn4)C3)CC2)nc(C(F)(F)F)c1 [Example 130, {trans-3-(4-{[4-[(dimethylamino)methyl]-6-(trifluoromethyl)pyridin-2-yl]oxy}piperidin-1-yl)-1-[4-(7H-pyrrolo[2,3-d]pyrimidin-4-yl)-1H-pyrazol-1-yl]cyclobutyl}acetonitrile]
< 10 | 25 to 100 | CCNCc1cc(OC2CCN([C@H]3C[C@](CC#N)(n4cc(-c5ncnc6[nH]ccc56)cn4)C3)CC2)nc(C(F)(F)F)c1 [Example 131, {trans-3-(4-{[4-[(ethylamino)methyl]-6-(trifluoromethyl)pyridin-2-yl]oxy}piperidin-1-yl)-1-[4-(7H-pyrrolo[2,3-d]pyrimidin-4-yl)-1H-pyrazol-1-yl]cyclobutyl}acetonitrile]
< 10 | 25 to 100 | CNCc1cc(OC2CCN([C@H]3C[C@](CC#N)(n4cc(-c5ncnc6[nH]ccc56)cn4)C3)CC2)nc(C(F)(F)F)c1 [Example 132, {trans-3-(4-{[4-[(methylamino)methyl]-6-(trifluoromethyl)pyridin-2-yl]oxy}piperidin-1-yl)-1-[4-(7H-pyrrolo[2,3-d]pyrimidin-4-yl)-1H-pyrazol-1-yl]cyclobutyl}acetonitrile]
10 to 25 | > 100 | CN(C)Cc1cc(C(=O)N2CCN([C@H]3C[C@@](CC#N)(n4cc(-c5ncnc6[nH]ccc56)cn4)C3)CC2)cc(C(F)(F)F)c1 [Example 135, {cis-3-{4-[3-[(dimethylamino)methyl]-5-(trifluoromethyl)benzoyl]piperazin-1-yl}-1-[4-(7H-pyrrolo[2,3-d]pyrimidin-4-yl)-1H-pyrazol-1-yl]cyclobutyl}acetonitrile]
< 10 | 25 to 100 | CN(C)Cc1cc(C#N)cc(C(=O)N2CCN([C@H]3C[C@](CC#N)(n4cc(-c5ncnc6[nH]ccc56)cn4)C3)CC2)c1 [Example 136, 3-[(4-{trans-3-(cyanomethyl)-3-[4-(7H-pyrrolo[2,3-d]pyrimidin-4-yl)-1H-pyrazol-1-yl]cyclobutyl}piperazin-1-yl)carbonyl]-5-[(dimethylamino)methyl]benzonitrile]
10 to 25 | > 100 | CN(C)Cc1cc(C#N)cc(OC2CCN([C@H]3C[C@](CC#N)(n4cc(-c5ncnc6[nH]ccc56)cn4)C3)CC2)c1 [Example 137, 3-[(1-{trans-3-(cyanomethyl)-3-[4-(7H-pyrrolo[2,3-d]pyrimidin-4-yl)-1H-pyrazol-1-yl]cyclobutyl}piperidin-4-yl)oxy]-5-[(dimethylamino)methyl]benzonitrile]
10 to 25 | > 100 | CN(C)Cc1cc(OC2CCN([C@H]3C[C@](CC#N)(n4cc(-c5ncnc6[nH]ccc56)cn4)C3)CC2)cc(C(F)(F)F)c1 [Example 138, {trans-3-{4-[3-[(Dimethylamino)methyl]-5-(trifluoromethyl)phenoxy]piperidin-1-yl}-1-[4-(7H-pyrrolo[2,3-d]pyrimidin-4-yl)-1H-pyrazol-1-yl]cyclobutyl}acetonitrile]
< 10 | > 100 | CCN(CC)Cc1cc(OC2CCN([C@H]3C[C@](CC#N)(n4cc(-c5ncnc6[nH]ccc56)cn4)C3)CC2)cc(C(F)(F)F)c1 [Example 139, {trans-3-{4-[3-[(diethylamino)methyl]-5-(trifluoromethyl)phenoxy]piperidin-1-yl}-1-[4-(7H-pyrrolo[2,3-d]pyrimidin-4-yl)-1H-pyrazol-1-yl]cyclobutyl}acetonitrile]
10 to 25 | > 100 | CN(C)Cc1cc(OC2CCN([C@H]3C[C@](CC#N)(n4cc(-c5ncnc6[nH]ccc56)cn4)C3)CC2)cc(C(F)F)c1 [Example 140, {trans-3-(4-{3-(difluoromethyl)-5-[(dimethylamino)methyl]phenoxy}piperidin-1-yl)-1-[4-(7H-pyrrolo[2,3-d]pyrimidin-4-yl)-1H-pyrazol-1-yl]cyclobutyl}acetonitrile]
< 10 | < 10 | CN(C)Cc1cc(Cl)nc(OC2CCN([C@H]3C[C@](CC#N)(n4cc(-c5ncnc6[nH]ccc56)cn4)C3)CC2)c1 [Example 141, {trans-3-[4-({6-chloro-4-[(dimethylamino)methyl]pyridin-2-yl}oxy)piperidin-1-yl]-1-[4-(7H-pyrrolo[2,3-d]pyrimidin-4-yl)-1H-pyrazol-1-yl]cyclobutyl}acetonitrile]
10 to 25 | > 100 | CN(C)Cc1cc(OC2CCN([C@H]3C[C@](CC#N)(n4cc(-c5ncnc6[nH]ccc56)cn4)C3)CC2)nc(C(F)(F)F)n1 [Example 142, {trans-3-(4-{[6-[(dimethylamino)methyl]-2-(trifluoromethyl)pyrimidin-4-yl]oxy}piperidin-1-yl)-1-[4-(7H-pyrrolo[2,3-d]pyrimidin-4-yl)-1H-pyrazol-1-yl]cyclobutyl}acetonitrile]
10 to 25 | 25 to 100 | CCNCc1cc(OC2CCN([C@H]3C[C@](CC#N)(n4cc(-c5ncnc6[nH]ccc56)cn4)C3)CC2)nc(C(F)(F)F)n1 [Example 143, {trans-3-(4-{[6-[(ethylamino)methyl]-2-(trifluoromethyl)pyrimidin-4-yl]oxy}piperidin-1-yl)-1-[4-(7H-pyrrolo[2,3-d]pyrimidin-4-yl)-1H-pyrazol-1-yl]cyclobutyl}acetonitrile]
10 to 25 | > 100 | N#CC[C@]1(n2cc(-c3ncnc4[nH]ccc34)cn2)C[C@H](N2CCC(Oc3cc(CN4CC(O)C4)nc(C(F)(F)F)n3)CC2)C1 [Example 144, {trans-3-(4-{[6-[(3-hydroxyazetidin-1-yl)methyl]-2-(trifluoromethyl)pyrimidin-4-yl]oxy}piperidin-1-yl)-1-[4-(7H-pyrrolo[2,3-d]pyrimidin-4-yl)-1H-pyrazol-1-yl]cyclobutyl}acetonitrile]
10 to 25 | > 100 | Cc1cc(OC2CCN([C@H]3C[C@](CC#N)(n4cc(-c5ncnc6[nH]ccc56)cn4)C3)CC2)nc(C(F)(F)F)n1 [Example 145, {trans-3-(4-{[6-methyl-2-(trifluoromethyl)pyrimidin-4-yl]oxy}piperidin-1-yl)-1-[4-(7H-pyrrolo[2,3-d]pyrimidin-4-yl)-1H-pyrazol-1-yl]cyclobutyl}acetonitrile]
10 to 25 | > 100 | N#CC[C@]1(n2cc(-c3ncnc4[nH]ccc34)cn2)C[C@H](N2CCC(Oc3cc(CO)nc(C(F)(F)F)n3)CC2)C1 [Example 146, {trans-3-(4-{[6-(hydroxymethyl)-2-(trifluoromethyl)pyrimidin-4-yl]oxy}piperidin-1-yl)-1-[4-(7H-pyrrolo[2,3-d]pyrimidin-4-yl)-1H-pyrazol-1-yl]cyclobutyl}acetonitrile]
